Experimental data: US20260137707A1, “METHODS OF MODULATING ATXN2 EXPRESSION” (University of Utah Research Foundation, priority 2022, published 2026)
Where a name gives a salt, the structure may show the parent alone. Read-outs that look alike come from different tables or passages of the source.

Assays:
[1] = system: ATXN2-luc; conditions: H2 cells
[2] = system: ATXN2-luc; test: cells; conditions: for activity at 1 µM: read-out: Luc at 1 μm; for activity at 10 µM: read-out: Luc at 10 μm
[3] = Table 1, 24 hrs, single 10 μM dose, Z-score of luciferase

Compound	SD from Mean [1, 3]	further results
CC[C@@]1(O)C(=O)OCc2c1cc1n(c2=O)Cc2cc3ccccc3nc2-1 [Camptothecine (S+)]	−5.283 SD	–
Nc1c2ccccc2nc2ccccc12 [AMINACRINE]	−4.103 SD	–
C[n+]1c2cc(N)ccc2cc2ccc(N)cc21.[Cl-] [ACRIFLA VINIUM HYDROCHLORIDE, ACRIFLAVINIUM HYDROCHLORIDE]	−4.148 SD	–
C[C@]12CC[C@H](O)C[C@H]1CC[C@@H]1[C@@H]2CC[C@]2(C)[C@@H](C3=CC(=O)OC3)CC[C@]12O [Digitoxigenin]	−3.629 SD	activity at 1 µM [2]: 38%; activity at 10 µM [2]: 13%; SD from Mean ([1]; Table 5S, pilot screen, 10 μM): −3.629 SD
C[C@H]1CC[C@]2(NC1)O[C@H]1C[C@H]3[C@@H]4CC[C@H]5C[C@@H](O[C@@H]6O[C@H](CO)[C@H](O[C@@H]7O[C@H](CO)[C@@H](O)[C@H](O[C@@H]8OC[C@@H](O)[C@H](O)[C@H]8O)[C@H]7O[C@@H]7O[C@H](CO)[C@@H](O)[C@H](O)[C@H]7O)[C@H](O)[C@H]6O)CC[C@]5(C)[C@H]4CC[C@]3(C)[C@H]1[C@@H]2C [TOMATINE]	−4.999 SD	–
CC(=O)[C@]1(O)Cc2c(O)c3c(c(O)c2[C@@H](O[C@H]2C[C@H](N)[C@H](O)[C@H](C)O2)C1)C(=O)c1ccccc1C3=O [IDARUBICIN HCl]	–	SD from Mean ([1]; Table 1, 24 hrs, single 10 μM dose, Z-score of luciferase, HCl): −2.944 SD
COc1cc(/C=C/C(=O)N2CCC=CC2=O)cc(OC)c1OC [Piperlongumine]	−2.973 SD	–
CO[C@H]1[C@H](O)[C@H](O[C@H]2CC[C@@]3(C=O)[C@H](CC[C@@H]4[C@@H]3CC[C@]3(C)[C@@H](C5=CC(=O)OC5)CC[C@]43O)C2)O[C@@H](C)[C@@H]1O [PERUVOSIDE]	−4.038 SD	activity at 1 µM [2]: 15%; activity at 10 µM [2]: 12%; SD from Mean ([1]; Table 5S, pilot screen, 10 μM): −4.038 SD
THIMEROSAL	−5.645 SD	–
C[C@]12CC[C@H](O)C[C@H]1CC[C@@H]1[C@@H]2C[C@@H](O)[C@]2(C)[C@@H](C3=CC(=O)OC3)CC[C@]12O [Digoxigenin]	−3.264 SD	activity at 1 µM [2]: 90%; activity at 10 µM [2]: 22%; SD from Mean ([1]; Table 5S, pilot screen, 10 μM): −3.264 SD
CC(C)[N+](C)(CCC(C(N)=O)(c1ccccc1)c1ccccc1)C(C)C [ISOPROPAMIDE IODIDE]	−4.073 SD	–
C[C@@H]1O[C@@H](O[C@H]2CC[C@]3(C=O)[C@H]4CC[C@]5(C)[C@@H](C6=CC(=O)OC6)CC[C@]5(O)[C@@H]4CC[C@]3(O)C2)[C@H](O)[C@H](O)[C@H]1O [CONVALLATOXIN]	−3.689 SD	activity at 1 µM [2]: 12%; activity at 10 µM [2]: 11%; SD from Mean ([1]; Table 5S, pilot screen, 10 μM): −3.689 SD
Cl.Cl.O=C1c2c(O)ccc(O)c2C(=O)c2c(NCCNCCO)ccc(NCCNCCO)c21 [MITOXANTHRONE HYDROCHLORIDE]	−4.333 SD	–
C[C@]12CC[C@H](O)C[C@H]1CC[C@@H]1[C@@H]2[C@H](O)C[C@]2(C)[C@@H](C3=CC(=O)OC3)CC[C@]12O [SARMENTOGENIN]	−3.539 SD	activity at 1 µM [2]: 53%; activity at 10 µM [2]: 24%
CO[C@H]1C[C@H](O[C@H]2CC[C@]3(C=O)[C@H]4CC[C@]5(C)[C@@H](C6=CC(=O)OC6)CC[C@]5(O)[C@@H]4CC[C@]3(O)C2)O[C@H](C)[C@H]1O [CYMARIN]	−4.099 SD	activity at 1 µM [2]: 14%; activity at 10 µM [2]: 16%; SD from Mean ([1]; Table 5S, pilot screen, 10 μM): −4.099 SD
O=C1C=C2C(=CCOC2O)O1 (centres unmarked) [PATULIN]	−3.651 SD	–
COc1ccc(C[C@H](N)C(=O)N[C@H]2[C@@H](O)[C@H](n3cnc4c(N(C)C)ncnc43)O[C@@H]2CO)cc1 [Puromycin dihydrochloride]	–	SD from Mean ([1]; Table 1, 24 hrs, single 10 μM dose, Z-score of luciferase, dihydrochloride): −4.723 SD
N=C1C=CC(=C(c2ccc(N)cc2)c2ccc(N)cc2)C=C1 [PARAROSANILINE PAMOATE]	−2.740 SD	–
Nc1ccn([C@@H]2O[C@H](CO)[C@@H](O)[C@@H]2O)c(=O)n1 [CYTARABINE]	−3.681 SD	–
CCCCCCc1ccc(O)cc1O.Nc1c2ccccc2nc2ccccc12 [ACRISORCIN]	−3.600 SD	–
COc1ccc(C[C@H]2NC[C@H](O)[C@H]2OC(C)=O)cc1 [Anisomycin]	−4.015 SD	–
CC(=O)[C@]1(O)Cc2c(O)c3c(c(O)c2[C@@H](O[C@H]2C[C@H](N)[C@H](O)[C@H](C)O2)C1)C(=O)c1ccccc1C3=O [IDARUBICIN]	−2.719 SD	–
N=c1ccn2c(n1)O[C@H]1[C@H](O)[C@@H](CO)O[C@H]12 [ANCITABINE HYDROCHLORIDE]	−3.031 SD	–
CN1CCN(CCCN2c3ccccc3Sc3ccc(C(F)(F)F)cc32)CC1 [TRIFLUOPERAZINE HYDROCHLORIDE]	−5.856 SD	activity at 10 µM [2]: 2%; SD from Mean ([1]; Table 5S, pilot screen, 10 μM): −5.856 SD

Compound	SD from Mean [1, 3]	further results
COc1ccc(CCCOC(Cn2ccnc2)c2ccc(OC)cc2)cc1 (centres unmarked) [SKF-96365]	−2.721 SD	activity at 1 µM [2]: 104%; activity at 10 µM [2]: 57%; SD from Mean ([1]; Table 5S, pilot screen, 10 μM): −2.721 SD
CC1=CC(=O)c2ccccc2C1=O [Menadione]	−3.434 SD	activity at 10 µM [2]: 35%
CCN(CC)CCCC(C)Nc1c2ccc(Cl)cc2nc2ccc(OC)cc12 (centres unmarked) [Quinacrine dihydrochloride dihydrate]	−3.270 SD	–
CC(N/C(=N\C#N)Nc1ccncc1)C(C)(C)C (centres unmarked)	−4.875 SD	activity at 10 µM [2]: 17%; SD from Mean ([1]; Table 5S, pilot screen, 10 μM): −4.875 SD
CCCCCCCCCOc1ccc2[nH]cc(CCN)c2c1 [5-Nonyloxytryptamine]	−3.607 SD	activity at 10 µM [2]: 5%
CC(C)=CCc1c(O)cc2occ(-c3ccc4c(c3)OCO4)c(=O)c2c1O [DERRUBONE]	−3.621 SD	activity at 1 µM [2]: 11%; activity at 10 µM [2]: 15%; SD from Mean ([1]; Table 5S, pilot screen, 10 μM): −3.621 SD
COc1ccc(C[C@H](N)C(=O)N[C@H]2[C@@H](O)[C@H](n3cnc4c(N(C)C)ncnc43)O[C@@H]2CO)cc1 [PUROMYCIN HYDROCHLORIDE]	–	SD from Mean ([1]; Table 1, 24 hrs, single 10 μM dose, Z-score of luciferase, HYDROCHLORIDE): −3.716 SD
O=C(Nc1ccc([N+](=O)[O-])cc1Cl)c1cc(Cl)ccc1O [Niclosamide]	−4.393 SD	–
O=C1c2c(O)ccc(O)c2C(=O)c2c(NCCNCCO)ccc(NCCNCCO)c21 [Mitoxantrone dihydrochloride]	−3.666 SD	–
C[C@@H]1O[C@@H](O[C@H]2C[C@@H](O)[C@]3(CO)[C@@H]4[C@@H](O)C[C@]5(C)[C@H](C6=CC(=O)OC6)CC[C@@]5(O)[C@H]4CC[C@]3(O)C2)[C@H](O)[C@H](O)[C@@H]1O [Strophantine octahydrate]	−3.624 SD	–
COc1cccc2c1C(=O)c1c(O)c3c(c(O)c1C2=O)C[C@@](O)(C(C)=O)C[C@@H]3O[C@H]1C[C@H](N)[C@H](O)[C@H](C)O1 [Daunorubicin hydrochloride]	−4.155 SD	–
CC(=O)O[C@@H]1C[C@@]2(C)[C@H](c3ccoc3)C[C@H]3O[C@]32[C@]2(C)C(=O)C(O)=C3C(C)(C)C(=O)C=C[C@]3(C)[C@@H]12 [ANTHOTHECOL]	−3.020 SD	–
COC(=O)C[C@](O)(CCCC(C)(C)O)C(=O)O[C@@H]1C(OC)=C[C@]23CCCN2CCc2cc4c(cc2[C@H]13)OCO4 [HOMOHARRINGTONINE]	−3.117 SD	–
COC(=O)[C@]1(C)CC[C@]2(C)CC[C@]3(C)C4=CC=C5C(=CC(=O)C(O)=C5C)[C@]4(C)CC[C@@]3(C)[C@@H]2C1 [PRISTIMERIN]	−3.883 SD	–
CC(C)/N=c1\cc2n(-c3ccc(Cl)cc3)c3ccccc3nc-2cc1Nc1ccc(Cl)cc1 [CLOFAZIMINE]	−2.792 SD	–
CNC1CC(c2ccc(Cl)c(Cl)c2)c2ccccc21 (centres unmarked) [Indatraline]	–	activity at 10 µM [2]: 6%
CC[C@@]1(O)C[C@H](O[C@H]2C[C@H](N(C)C)[C@H](O)[C@H](C)O2)c2c(cc3c(c2O)C(=O)c2c(O)cccc2C3=O)[C@H]1C(=O)OC [AKLAVINE HYDROCHLORIDE]	−3.741 SD	–
CO[C@H]1C=C[C@@]23c4cc5c(cc4CN(C[C@@H]2O)[C@H]3C1)OCO5 [CRINAMINE]	−3.651 SD	–
Cc1c2ccncc2c(C)c2c1[nH]c1ccccc12 [Ellipticine]	−3.485 SD	–
CC[C@@]1(O)C[C@H](O)c2c(cc3c(c2O)C(=O)c2c(O)ccc(O)c2C3=O)[C@H]1C(=O)OC [RUTILANTINONE]	−2.722 SD	–
COc1cc([C@@H]2c3cc4c(cc3[C@@H](O[C@@H]3O[C@@H]5CO[C@@H](c6cccs6)O[C@H]5[C@H](O)[C@H]3O)[C@H]3COC(=O)[C@H]23)OCO4)cc(OC)c1O [TENIPOSIDE]	−2.832 SD	–
CC(C)=CCC[C@]1(C)C=Cc2c(O)c3c(c(CC=C(C)C)c2O1)O[C@]12C(=C[C@@H]4C[C@H]1C(C)(C)O[C@@]2(C/C=C(/C)C(=O)O)C4=O)C3=O [GAMBOGIC ACID]	−4.841 SD	–
O=C1C=CC(=O)c2ccccc21 [4-NAPHTHOQUINONE]	−3.613 SD	–
Lycorine hydrochloride	−2.968 SD	–
